Data on one compound can be found in patent US11814382B2 (FUJIAN COSUNTER PHARMACEUTICAL CO., LTD., priority 2018, dated 2023).

Data set [1] is described as follows: Solid stability test of crystal form A (high temperature, high humidity, strong light). It is filed as physicochemical. An excerpt:
The samples were respectively placed in a high-temperature, high-humidity and strong-light storage container. The samples were taken at 5 and 10 days after placing, and the test results were compared with the initial test results at 0 days.

Data set [2] has as its system MCD-induced mouse NASH model. Put plainly: In vivo efficacy test in MCD-induced mouse NASH model. Further details: species or system C57BL/6 male mice. As to conditions: dosing from week 5 of 8 weeks MCD feed, vs. model group (FIG. 13). Here is the method: SPF grade C57BL/6 male mice, 22-25 grams in weight.
MCD: methionine/choline deficient feed.
Liver Propylene Analytical Reagents: hematoxylin dyeing liquid, eosin dyeing liquid and Picro sirius dyeing liquid.
After the animals were adapted for one week in the facility, the normal control group was still fed with the normal feed, and other animals were fed with MCD feed instead. The drinking water didn't change and the feed was replaced once every 48 hours. Beginning at week 5, the remaining groups, except the normal control and model groups, were administrated with subject compound. The Experiment lasted for a total of 8 weeks. At the end of the experiment, animal liver samples were collected for histopathological analysis.

In data set [3] the test system is CCl4-induced mouse liver fibrosis model. Put plainly: In vivo efficacy test in CCl4-induced mouse liver fibrosis model. The arrangement: species or system Male C57BL/6 mice. The conditions noted are these: oral gavage, day 1 to day 28 of CCl4 modeling, vs. model group (FIG. 14). Here is the method:
Male C57BL/6 mice, 22-27 grams in weight, purchased from Shanghai Lingchang Biotechnology Co., Ltd.
Mice were transferred to the experimental area after one week of quarantine and adaptation. Animals were randomly divided into groups according to body weight and housed in cages at 5 mice per cage. 20% CCl4 solution with CCl4: Olive oil=1:4 was prepared by dissolving CCl4 in olive oil at a dose of 0.5 μl/g in mice. The mice of model group were orally three times a week for 4 weeks for molding, and the mice of normal control group was administrated only with the same volume of olive oil orally. The subject compounds were administered orally by oral gavage in a volume of 10 ml/kg per animal. The Day 1 of CCl4 modeling was initiated while dosing was initiated until day 28. At the end of the experiment, animal liver samples were collected for histopathological analysis.

On to `Cc1cc(F)c(C(=O)Nc2cccc(-c3nnc4n3CCCC4)n2)cc1-n1cnc(C2CC2)c1` [Crystal form A], for which the Crystal form entry in data set [1] (High Humidity (25° C./Relative Humidity 90%, Open), Day 5) is given as “Crystal form A”; in data set [1] (High Humidity (25° C./Relative Humidity 90%, Open), Day 10), “Crystal form A”; in data set [1] (High Temperature (60° C., Open), Day 5), “Crystal form A”; in data set [1] (High Temperature (60° C., Open), Day 10) it was “Crystal form A”; in data set [1] (Strong light (5000 lx, closed), Day 5), “Crystal form A”; in data set [1] (Strong light (5000 lx, closed), Day 10), “Crystal form A”. The Crystal form result in data set [1] (initial, Day 0) is listed as “Crystal form A”. The “Solid stability (conclusion)” value in data set [1] (high temperature, high humidity and strong light) is “good stability”. For the same compound, the “Effect on liver fibrosis (liver histopathology)” value in data set [2] (6 mg/Kg BID), in data set [2] (60 mg/Kg BID), in data set [3] (3 mg/Kg BID) and in data set [3] (30 mg/Kg BID) was “significant effect on improving liver fibrosis” each time.
